Source: PMC4971745, “Evaluation of a Set of C9 N-acyl Neu5Ac2en Mimetics as Viral Sialidase Selective Inhibitors” (International Journal of Medicinal Chemistry, 2010)

Key:
[1] = biological target: T1, sialidase of influenza A virus A/PR/8/34 (H1N1) (Influenza A virus, UniProt P03468); experiment: biochemical
T1 construct: preincubated with 5 μL of the virus containing 2 enzyme units; host or cells: whole virus preparation

[2] = biological target: human sialidase NEU4; details: previously reported; ref [39]; read-out: Human sialidase inhibition (IC50) NEU4; cited from earlier work
[3] = tested on: sialidase of influenza A virus A/Duck/313/78 (H5N3); assay type: biochemical; details: pH 6; read-out: Viral sialidase inhibition (IC50) H5N3
[4] = biological target: human sialidase NEU3; details: previously reported; ref [39]; read-out: Human sialidase inhibition (IC50) NEU3; cited from earlier work
[5] = biological target: human sialidase NEU2; details: previously reported; ref [39]; read-out: Human sialidase inhibition (IC50) NEU2; cited from earlier work
[6] = biological target: T2, sialidase of influenza A virus A/Memphis/1/71 (H3N2) (Influenza A virus, UniProt P03475); experiment: biochemical
T2 construct: preincubated with 5 μL of the virus containing 2 enzyme units; host or cells: whole virus preparation

[7] = biological target: human sialidase NEU1; details: previously reported; ref [39]; read-out: Human sialidase inhibition (IC50) NEU1; cited from earlier work

T2 sequence (P03475 whole entry): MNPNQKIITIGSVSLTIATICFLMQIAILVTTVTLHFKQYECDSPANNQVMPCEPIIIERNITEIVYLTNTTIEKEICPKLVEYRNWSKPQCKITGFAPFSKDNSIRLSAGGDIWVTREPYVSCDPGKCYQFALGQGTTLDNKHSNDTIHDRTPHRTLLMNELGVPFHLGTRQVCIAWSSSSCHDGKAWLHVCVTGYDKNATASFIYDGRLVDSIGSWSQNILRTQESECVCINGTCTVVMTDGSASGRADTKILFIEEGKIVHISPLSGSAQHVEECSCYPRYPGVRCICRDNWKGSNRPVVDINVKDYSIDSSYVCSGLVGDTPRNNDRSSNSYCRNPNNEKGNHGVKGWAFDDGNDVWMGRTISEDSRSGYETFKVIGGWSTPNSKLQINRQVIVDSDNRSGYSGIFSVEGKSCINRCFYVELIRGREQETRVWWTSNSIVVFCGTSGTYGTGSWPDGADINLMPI
T1 sequence (P03468 whole entry): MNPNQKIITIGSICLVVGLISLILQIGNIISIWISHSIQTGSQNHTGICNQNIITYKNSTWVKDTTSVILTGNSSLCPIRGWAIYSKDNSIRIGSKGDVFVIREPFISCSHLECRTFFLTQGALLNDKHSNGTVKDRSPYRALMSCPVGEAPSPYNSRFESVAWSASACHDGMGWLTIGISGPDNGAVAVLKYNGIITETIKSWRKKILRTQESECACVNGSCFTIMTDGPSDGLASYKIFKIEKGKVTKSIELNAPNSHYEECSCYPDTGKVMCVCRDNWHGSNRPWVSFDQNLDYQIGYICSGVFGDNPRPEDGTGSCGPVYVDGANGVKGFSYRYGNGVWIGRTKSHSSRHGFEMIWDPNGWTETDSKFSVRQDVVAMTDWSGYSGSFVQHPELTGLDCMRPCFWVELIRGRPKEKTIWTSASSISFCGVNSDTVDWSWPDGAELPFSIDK

| SMILES | IC50 [1] [µM] | IC50 [2] [µM] | IC50 [3] [µM] | IC50 [4] [µM] | IC50 [5] [µM] | IC50 [6] [µM] | IC50 [7] [µM] |
| --- | --- | --- | --- | --- | --- | --- | --- |
| CC(=O)NC[C@@H](O)[C@@H](O)[C@H]1OC(C(=O)O)=C[C@@H](O)[C@@H]1NC(C)=O [Compound 5] | 22 | 580 | 97 | > 1000 | > 1000 | 34 | 58 |
| CC(=O)N[C@@H]1[C@@H]([C@H](O)[C@H](O)CNC(=O)c2ccccc2)OC(C(=O)O)=C[C@H]1O [Compound 6] | > 1000 |  | > 1000 |  |  | > 1000 |  |
| CC(=O)N[C@@H]1[C@@H]([C@H](O)[C@H](O)CNC(=O)C2CCCC2)OC(C(=O)O)=C[C@H]1O [Compound 7] | 850 |  | > 1000 |  |  | > 1000 |  |
| CC(=O)N[C@@H]1[C@@H]([C@H](O)[C@H](O)CNC(=O)C2CC2)OC(C(=O)O)=C[C@H]1O [Compound 8] | 9 | 825 | 98 | > 1000 | > 1000 | 16 | 680 |
| CCCC(=O)NC[C@@H](O)[C@@H](O)[C@H]1OC(C(=O)O)=C[C@@H](O)[C@@H]1NC(C)=O [Compound 9] | 97 |  |  |  |  | 559 |  |
| CCC(C)C(=O)NC[C@@H](O)[C@@H](O)[C@@H]1OC(C(=O)O)=C[C@H](O)[C@H]1NC(C)=O (some centres unmarked) [Compound 10] | 59 |  | > 1000 |  |  | > 1000 |  |
| CC(=O)N[C@@H]1[C@@H]([C@H](O)[C@H](O)CNC(=O)C(C)C)OC(C(=O)O)=C[C@H]1O [Compound 11] | 54 |  | > 1000 |  |  | 680 |  |
| CCCCC(=O)NC[C@@H](O)[C@@H](O)[C@H]1OC(C(=O)O)=C[C@@H](O)[C@@H]1NC(C)=O [Compound 12] | 34 |  | > 1000 |  |  | 159 |  |
| CC(=O)N[C@@H]1[C@@H]([C@H](O)[C@H](O)CNC(=O)C(C)(C)C)OC(C(=O)O)=C[C@H]1O [Compound 13] | 78 |  | > 1000 |  |  | 770 |  |
| CCC(CC)C(=O)NC[C@@H](O)[C@@H](O)[C@@H]1OC(C(=O)O)=C[C@H](O)[C@H]1NC(C)=O [Compound 14] | 698 |  | > 1000 |  |  | > 1000 |  |
| CC(=O)N[C@H]1[C@H]([C@H](O)[C@H](O)CO)OC(C(=O)O)=C[C@@H]1O [DANA, 5-acetamido-2,6-anhydro-3,5-dideoxy-D-glycero-D-galacto-non-2-enonic acid, reference compound] |  | 74 | 11 | 61 |  | 9 |  |
